Molecules are shown by their SMILES.

The values that follow come from patent US20240390383A1, “DIOXAZINES AND THEIR USE IN TREATMENT OF GBA-RELATED DISEASES” (ZEVRA DENMARK A/S, priority 2021, published 2024).

For the test, the target named is T1, GCase (GBA) in human fibroblast cell line GM10915 harboring the L444P GBA mutation (Homo sapiens, UniProt P04062, L483P).
T1 construct: Human fibroblast cell line GM10915 harboring the L444P GBA mutation; host or cells: GM10915 human fibroblasts
T1 sequence (P04062 40-536 L483P): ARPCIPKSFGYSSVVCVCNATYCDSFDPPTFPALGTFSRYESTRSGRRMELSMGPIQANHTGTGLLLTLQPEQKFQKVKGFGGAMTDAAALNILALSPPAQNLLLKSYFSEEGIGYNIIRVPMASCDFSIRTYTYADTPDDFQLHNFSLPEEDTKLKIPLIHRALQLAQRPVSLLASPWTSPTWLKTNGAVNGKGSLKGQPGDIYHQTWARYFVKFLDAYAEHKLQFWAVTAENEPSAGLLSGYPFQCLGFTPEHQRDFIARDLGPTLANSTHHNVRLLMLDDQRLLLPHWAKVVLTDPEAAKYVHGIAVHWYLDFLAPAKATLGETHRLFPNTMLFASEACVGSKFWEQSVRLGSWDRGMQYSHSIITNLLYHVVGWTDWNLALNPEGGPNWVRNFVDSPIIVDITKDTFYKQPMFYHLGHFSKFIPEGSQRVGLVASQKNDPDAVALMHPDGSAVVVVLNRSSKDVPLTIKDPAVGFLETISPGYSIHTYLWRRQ
Briefly: GCase activity assay (4-MUG substrate, normalised to crystal violet staining) in L444P GBA fibroblasts. Conditions: 5 days exposure; for GBA EC1.5: concentration giving 150% GCase activity (1.5-fold induction), 8-point dose range; for Emax: maximum percent GCase activity relative to untreated cells in the dose range tested. The class given is cell-based. Here is the method: Human fibroblast cell line GM10915 harboring the L444P GBA mutation was obtained from Coriell Biorepositories.
All chemicals (Glacial acetic acid, Glycine, 4-Methylumbelliferyl b-D-glucopyranoside (4-MUG), Sodium acetate trihydrate, Sodium hydroxide, Crystal violet, SDS, Ammonium hydroxide) were obtained from Sigma-Aldrich (Denmark) Compounds tested for GCase activity were dissolved in H2O or DMSO.
The GM10915 cell line was cultured under standard cell culture conditions (37° C. and 5% CO2) in complete DMEM medium supplemented with nonessential amino acids (NEAA), 1% Pen-Strep and 12% FCS. Cells were seeded at a density of 10^4 cells/well in 100 μL complete medium in one black 96-well plate for glucosylceramidase (GCase) activity measurement and in one clear 96-well plate for crystal violet staining to correct for cell density. Crystal violet staining is performed to obtain quantitative information about the relative density of cells adhering to multi-wells plates.
The assay was adapted from Sawkar et al (2002) and briefly described in the following. The day after seeding of cells, the medium was replaced with fresh medium containing the compounds to be tested. Compounds were tested in duplicate and in an 8-point diluted dose range to obtain a dose response. Cells were exposed with compounds for five days. Fresh compound was added every 2-3 days. PBS was included to define the basal level of GCase activity.
Cells were washed three times with 200 μL PBS per well and 50 μL of 2.5 mM 4-MUG buffer (4-MUG dissolved in 0.2 M acetate buffer pH 4.0) was added and the cells were incubated at 37° C., 5% CO2 for 23 hours. The reaction was stopped by adding 150 μL 0.2 M glycine buffer (pH 10.8). Fluorescence was measured with a Varioskan® Flash reader (Thermo Scientific) at an excitation/emission setting of 365/445 nm.
Cells were treated with compounds in a parallel setup identical to the setup to test for GCase activity. At the end of compound treatment, cells were washed once with 200 μL PBS per well and 50 μL 0.1% w/v crystal violet (in H2O) was added. Following 10 min. of incubation, the crystal violet solution was removed, and the cells were washed three times with 200 μL PBS and 100 μL 1% SDS was added to solubilize the stain. The plate was agitated on an orbital shaker for 10-30 min. Absorbance (A) is measured at […] using a Varioskan® Flash reader (Thermo Scientific).
The fluorescence signal (F) derived from the GCase measurement is normalized to the absorbance signal (A) derived from the crystal violet staining. The percent GCase activity resulting from compound treatment is calculated relative to the basal activity obtained from untreated cells.
Maximal effect of compounds (Emax) is determined from the dose response effects as the maximum “Percent GCase activity” achieved in the dose range tested.

For `CC1(C2=NOCC(CN3CCCCC3)O2)CCNC1` (racemic) [compound 465, rac-3-(3-methylpyrrolidin-3-yl)-5-(piperidin-1-ylmethyl)-5,6-dihydro-1,4,2-dioxazine], the “GBA EC1.5” value came to 10 µM and the Emax worked out at 283%.

Take `CC(C)(C1=NOCC(CN2CCCCC2)O1)C1CCCNC1` (racemic) [compound 473, rac-5-(piperidin-1-ylmethyl)-3-(2-(piperidin-3-yl)propan-2-yl)-5,6-dihydro-1,4,2-dioxazine di-2,2,2-trifluoroacetate]: the “GBA EC1.5” value came to 9 µM and the Emax came out at 181%.

For `CC1(C2=NOCC(CN3CCCCC3)O2)CCCNC1` (racemic) [compound 476, rac-3-(3-methylpiperidin-3-yl)-5-(piperidin-1-ylmethyl)-5,6-dihydro-1,4,2-dioxazine], the “GBA EC1.5” value came out at 6 µM and the Emax is 253%.

`CC(C)(C1=NOCC(CN2CCCCC2)O1)C1CCNCC1` (racemic) [compound 477, rac-5-(piperidin-1-ylmethyl)-3-(2-(piperidin-4-yl)propan-2-yl)-5,6-dihydro-1,4,2-dioxazine di-2,2,2-trifluoroacetate]: the “GBA EC1.5” value was 15 µM and the Emax came out at 181%.

Turning to `C1CCN(CC2CON=C(CC3CCNCC3)O2)CC1` (racemic) [compound 479, rac-5-(piperidin-1-ylmethyl)-3-(piperidin-4-ylmethyl)-5,6-dihydro-1,4,2-dioxazine], the “GBA EC1.5” value was 35 µM and the Emax turned out to be 184%.

On to `CC1(C2=NOCC(CN3CCCCC3)O2)CNCCO1` (racemic) [compound 480, rac-3-(2-methylmorpholin-2-yl)-5-(piperidin-1-ylmethyl)-5,6-dihydro-1,4,2-dioxazine], for which the “GBA EC1.5” value was found to be 16 µM and the Emax was found to be 273%.

Take `C1CCN(CC2CON=C([C@@]34CN[C@@H](CO3)C4)O2)CC1` (mixture of isomers) [compound 490, rac-(1R,4R)-1-(5-(piperidin-1-ylmethyl)-5,6-dihydro-1,4,2-dioxazin-3-yl)-2-oxa-5-azabicyclo[2.2.1]heptane]: the “GBA EC1.5” value was 11 µM and the Emax came out at 215%.

As to `CC(C)(C1=NOCC(CN2CCCCC2)O1)C1CCNC1` (racemic) [compound 491, rac-5-(piperidin-1-ylmethyl)-3-(2-(pyrrolidin-3-yl)propan-2-yl)-5,6-dihydro-1,4,2-dioxazine], the “GBA EC1.5” value was found to be 28 µM and the Emax was 230%.

As for `CC1(C2=NOCC(CN3CCNC(C(F)(F)F)CC3)O2)CCNCC1` (racemic) [compound 500, rac-3-(4-methylpiperidin-4-yl)-5-((5-(trifluoromethyl)-1,4-diazepan-1-yl)methyl)-5,6-dihydro-1,4,2-dioxazine], the “GBA EC1.5” value turned out to be 14 µM and the maximum response (Emax) worked out at 166%.

Take `C1CCN(CC2CON=C(C3CCNC3)O2)CC1` (racemic) [compound 508, rac-5-(piperidin-1-ylmethyl)-3-(pyrrolidin-3-yl)-5,6-dihydro-1,4,2-dioxazine]: the “GBA EC1.5” value was determined as 17 µM and the maximal response (Emax) turned out to be 226%.

Regarding `C1CCN(CC2CON=C(C34CCCNCC3C4)O2)CC1` (racemic) [compound 519, rac-3-(3-azabicyclo[5.1.0]octan-7-yl)-5-(piperidin-1-ylmethyl)-5,6-dihydro-1,4,2-dioxazine], the “GBA EC1.5” value was 40 µM and the Emax was determined as 159%.

`C1CCN(CC2CON=C(C3(C4CCNCC4)CC3)O2)CC1` (racemic) [compound 521, rac-5-(piperidin-1-ylmethyl)-3-(1-(piperidin-4-yl)cyclopropyl)-5,6-dihydro-1,4,2-dioxazine]: the “GBA EC1.5” value is 19 µM and the Emax was 336%.

For the compound `C1CCN(CC2CON=C(C34CNC(C3)C4)O2)CC1` (racemic) [compound 527, rac-3-(2-azabicyclo[2.1.1]hexan-4-yl)-5-(piperidin-1-ylmethyl)-5,6-dihydro-1,4,2-dioxazine], the “GBA EC1.5” value was 26 µM and the Emax was found to be 187%.

Consider `Fc1cncc(CC2(C3=NOCC(CN4CCCCC4)O3)CCNCC2)c1` (racemic) [compound 528, rac-3-(4-((5-fluoropyridin-3-yl)methyl)piperidin-4-yl)-5-(piperidin-1-ylmethyl)-5,6-dihydro-1,4,2-dioxazine], for which the “GBA EC1.5” value is 6 µM and the Emax worked out at 181%.

As for `CN1CCCC(C)(C2=NOCC(CN3CCCCC3)O2)C1` (racemic) [compound 529, rac-3-(1,3-dimethylpiperidin-3-yl)-5-(piperidin-1-ylmethyl)-5,6-dihydro-1,4,2-dioxazine], the “GBA EC1.5” value stood at 11 µM and the Emax is 222%.

As for `CC1ON=C(C2(C)CCNCC2)OC1CN1CCCCC1` (racemic) [compound 531, rac-6-methyl-3-(4-methylpiperidin-4-yl)-5-(piperidin-1-ylmethyl)-5,6-dihydro-1,4,2-dioxazine], the “GBA EC1.5” value stood at 7 µM and the Emax turned out to be 282%.

`CN1CCC(C2=NOCC(CN3CCCCC3)O2)C1` (racemic) [compound 546, rac-3-(1-methylpyrrolidin-3-yl)-5-(piperidin-1-ylmethyl)-5,6-dihydro-1,4,2-dioxazine]: the “GBA EC1.5” value is 18 µM and the Emax was 253%.

With `C1CCN(CC2CON=C(C3C4CNC3C4)O2)CC1` (racemic) [compound 548, rac-3-(2-azabicyclo[2.1.1]hexan-5-yl)-5-(piperidin-1-ylmethyl)-5,6-dihydro-1,4,2-dioxazine], the “GBA EC1.5” value came out at 21 µM and the Emax is 281%.

Consider `CC1(C2=NOCC(CN3CCCCC3)O2)CNC1` (racemic) [compound 549, rac-3-(3-methylazetidin-3-yl)-5-(piperidin-1-ylmethyl)-5,6-dihydro-1,4,2-dioxazine], for which the “GBA EC1.5” value is 36 µM and the Emax came to 232%.

Turning to `c1cncc(CC2(C3=NOCC(CN4CCCCC4)O3)CCNCC2)c1` (racemic) [compound 550, rac-5-(piperidin-1-ylmethyl)-3-(4-(pyridin-3-ylmethyl)piperidin-4-yl)-5,6-dihydro-1,4,2-dioxazine], the “GBA EC1.5” value was 27 µM and the Emax came out at 159%.

`C1CCN(CC2CON=C(C34CCCN(CC3)C4)O2)CC1` (racemic) [compound 553, rac-3-(1-azabicyclo[3.2.1]octan-5-yl)-5-(piperidin-1-ylmethyl)-5,6-dihydro-1,4,2-dioxazine]: the “GBA EC1.5” value was determined as 4 µM and the Emax stood at 341%.

As to `C1CCN(CC2CON=C(CC3CCCNC3)O2)CC1` (racemic) [compound 554, rac-5-(piperidin-1-ylmethyl)-3-(piperidin-3-ylmethyl)-5,6-dihydro-1,4,2-dioxazine], the “GBA EC1.5” value is 11 µM and the Emax worked out at 271%.

Take `CC1NCCC1C1=NOCC(CN2CCCCC2)O1` (racemic) [compound 559, rac-3-(2-methylpyrrolidin-3-yl)-5-(piperidin-1-ylmethyl)-5,6-dihydro-1,4,2-dioxazine]: the “GBA EC1.5” value came to 16 µM and the Emax is 251%.

`CC1CC(C2=NOCC(CN3CCCCC3)O2)CN1` (racemic) [compound 560, rac-3-(5-methylpyrrolidin-3-yl)-5-(piperidin-1-ylmethyl)-5,6-dihydro-1,4,2-dioxazine]: the “GBA EC1.5” value worked out at 8 µM and the Emax came out at 244%.
